Laboratory results reported in US8685942B2, “Sophorolipid analog compositions” (priority 2010, dated 2014).
≈ marks a conversion by molar mass, not a printed value. Like-named read-outs stand apart in the source and are kept apart here.

What was measured:
[1] = system: Botrytis cinerea; assay: Antifungal MIC, 96 well microplate, spore suspension; assay type: cell-based
Description: (§1) Sophorolipid samples were dissolved in 5% ethanol solution to a final concentration of 5 mg/mL and used as a stock solution. The stock solution (100 μl) was added into a 96 well microplate and serially diluted from 2.5 mg/ml to 0.0024 mg/ml using culture medium. After serial dilution, 80 μl of fresh culture medium and 20 μl of spore suspension were added to each well and the plates were incubated for 7 days. The minimum inhibitory concentration (MIC) was determined to measure antifungal activity of sophorolipid-derived compounds. MIC values for antifungal activity were determined by absence of visible growth in the micro wells containing sophorolipid after 7 days of incubation.
as §1, §1

[2] = system: Alternariatomatophilia; assay: as above; assay type: cell-based
Description: as §1, §1, §1

[3] = system: A. solani; assay: as above; assay type: cell-based
Description: as §1, §1, §1

[4] = system: A. alternate; assay: as above; assay type: cell-based; conditions: 168 h
Description: as §1, §1, §1

[5] = system: pathogens; assay: Antifungal MIC screen, summary over the pathogen panel; assay type: cell-based; conditions: of the eight pathogens of Tables 2-4
Description: as §1, with “The hydrogenated lactonic sophorolipids have antifungal activity, which were confirmed by experiment and observations. Sophorolipid” for “Sophorolipid”, “incubation. Natural and lactonic SLs were active against four pathogens, whereas hydrogenated lactonic and acidic SLs active against three and two pathogens respectively.” for “incubation.”
as §1, with “The acidic sophorolipid esters have antifungal activity, which were confirmed by experiment and observations. Sophorolipid” for “Sophorolipid”
as §1, with “The acidic sophorolipid amide derivatives have antifungal activity, which were confirmed by experiment and observations. Sophorolipid” for “Sophorolipid”

[6] = system: Ralstoniaeutropha; conditions: cited from earlier work
[7] = system: Phytophthoracapsici; assay: Antifungal MIC, 96 well microplate, spore suspension; assay type: cell-based; conditions: absence of visible growth after 7 days, diluted from 2.5 to 0.0024 mg/ml
Description: as §1, §1, §1

[8] = system: Rhodoccocuserythropolis; conditions: cited from earlier work
[9] = system: Moraxella; conditions: cited from earlier work
[10] = system: Salmonella choleraesuis; conditions: cited from earlier work
[11] = system: Eserichia coli; conditions: cited from earlier work
[12] = system: Phytophthorainfestans; assay: Antifungal MIC, 96 well microplate, spore suspension; assay type: cell-based; conditions: absence of visible growth after 7 days, diluted from 2.5 to 0.0024 mg/ml
Description: as §1, §1, §1

[13] = system: Fusarimoxysporium; assay: as above; assay type: cell-based; conditions: absence of visible growth after 7 days, diluted from 2.5 to 0.0024 mg/ml
Description: as §1, §1, §1

[14] = system: vaginal cell; conditions: cited from earlier work
[15] = Alternariatomatophilia, absence of visible growth after 7 days, diluted from 2.5 to 0.0024 mg/ml
[16] = A. solani, absence of visible growth after 7 days, diluted from 2.5 to 0.0024 mg/ml

Structure (SMILES) | number of pathogens active against [5] | MIC100 [6] [µg/mL] | MIC [7] [µg/mL] | MIC100 [8] [µg/mL] | MIC100 [9] [µg/mL] | MIC100 [10] [µg/mL] | MIC100 [11] [µg/mL] | also measured
CC(CCCCCC/C=C\CCCCCCCC(=O)NCCN(C)C)OC1OC(CO)C(O)C(O)C1OC1OC(CO)C(O)C(O)C1O (centres unmarked) [SL-AM-3, (Z)-17-((4,5-dihydroxy-6-(hydroxymethyl)-3-((3,4,5-trihydroxy-6-(hydroxymethyl)tetrahydro-2H-pyran-2-yl)oxy)tetrahydro-2H-pyran-2-yl)oxy)-N-(2-(dimethylamino)ethyl)-octadec-9-enamide] | four | – | – | – | – | – | – | MIC ([1]; 168 h): 600 µg/mL (≈ 866 µM); MIC ([2]; 168 h): 300 µg/mL (≈ 433 µM); MIC ([3]; Alternaria solani, 168 h): 150 µg/mL (≈ 216 µM); MIC [4]: 1250 µg/mL (≈ 1800 µM)
CC(CCCCCC/C=C\CCCCCCCC(=O)NCC[N+](C)(C)C)OC1OC(CO)C(O)C(O)C1OC1OC(CO)C(O)C(O)C1O (centres unmarked) [SL-AM-4, (Z)-2-(17-((4,5-dihydroxy-6-(hydroxymethyl)-3-((3,4,5-trihydroxy-6 (hydroxyl methyl)tetrahydro-2H-pyran-2-yl)oxy)tetrahydro-2H-pyran-2-yl)oxy)octadec-9-enamido)-N,N,N-trimethylethanaminium iodide] | four | – | – | – | – | – | – | MIC ([1]; 168 h, absence of visible growth after 7 days, diluted from 2.5 to 0.0024 mg/ml, read-out: MIC): 600 µg/mL; MIC ([2]; 168 h, Alternariatomatophilia, absence of visible growth after 7 days, diluted from 2.5 to 0.0024 mg/ml, read-out: MIC): 150 µg/mL; MIC ([3]; Alternaria solani, 168 h, A. solani, absence of visible growth after 7 days, diluted from 2.5 to 0.0024 mg/ml, read-out: MIC): 600 µg/mL; MIC ([4]; A. alternate, absence of visible growth after 7 days, diluted from 2.5 to 0.0024 mg/ml, read-out: MIC): 1250 µg/mL
CCOC(=O)CCCCCCC/C=C\CCCCCCC(C)OC1OC(COC(C)=O)C(O)C(O)C1OC1OC(COC(C)=O)C(O)C(O)C1O (centres unmarked) [SL-E-5] | one | 5000 (≈ 6800 µM) | 600 (≈ 816 µM) | 5000 (≈ 6800 µM) | 61.7 (≈ 84 µM) | 5000 (≈ 6800 µM) | 5000 (≈ 6800 µM) | –
CCCCCCOC(=O)CCCCCCC/C=C\CCCCCCC(C)OC1OC(CO)C(O)C(O)C1OC1OC(CO)C(O)C(O)C1O (centres unmarked) [SL-E-9] | – | 5000 (≈ 7070 µM) | – | – | 1670 (≈ 2360 µM) | 5000 (≈ 7070 µM) | 1670 (≈ 2360 µM) | –
CCCCOC(=O)CCCCCCC/C=C\CCCCCCC(C)OC1OC(CO)C(O)C(O)C1OC1OC(CO)C(O)C(O)C1O (centres unmarked) [SL-E-3] | three | – | – | – | – | – | – | MIC [2, 15]: 150 µg/mL (≈ 221 µM); MIC [3, 16]: 1250 µg/mL (≈ 1840 µM); MIC [12]: 1250 µg/mL (≈ 1840 µM)
COC(=O)CCCCCCC/C=C\CCCCCCC(C)OC1OC(CO)C(O)C(O)C1OC1OC(CO)C(O)C(O)C1O (centres unmarked) [SL-E-1, sophorolipid methyl ester] | three | 5000 (≈ 7850 µM) | 1250 (≈ 1960 µM) | 5000 (≈ 7850 µM) | 61.7 (≈ 96.9 µM) | 1670 (≈ 2620 µM) | 1670 (≈ 2620 µM) | MIC [3, 16]: 2500 µg/mL (≈ 3930 µM); MIC [13]: 2500 µg/mL (≈ 3930 µM)
CCCCOC(=O)CCCCCCC/C=C\CCCCCCC(C)OC1OC(COC(C)=O)C(O)C(O)C1OC1OC(COC(C)=O)C(O)C(O)C1O (centres unmarked) [SL-E-8] | one | – | – | – | – | – | – | MIC [3, 16]: 1250 µg/mL (≈ 1640 µM)
CCOC(=O)CCCCCCC/C=C\CCCCCCC(C)OC1OC(CO)C(O)C(O)C1OC1OC(COC(C)=O)C(O)C(O)C1O (centres unmarked) [SL-E-4] | one | 5000 (≈ 7220 µM) | 600 (≈ 866 µM) | 6.86 (≈ 9.9 µM) | 20.5 (≈ 29.6 µM) | 5000 (≈ 7220 µM) | 5000 (≈ 7220 µM) | –
CCCCOC(=O)CCCCCCC/C=C\CCCCCCC(C)OC1OC(CO)C(O)C(O)C1OC1OC(COC(C)=O)C(O)C(O)C1O (centres unmarked) [SL-E-6] | one | – | 600 (≈ 832 µM) | – | – | – | – | –
CC(CCCCCC/C=C\CCCCCCCC(=O)O)OC1OC(CO)C(O)C(O)C1OC1OC(CO)C(O)C(O)C1O (centres unmarked) [SL-A-4] | – | 5000 (≈ 8030 µM) | – | 560 (≈ 899 µM) | 5000 (≈ 8030 µM) | 5000 (≈ 8030 µM) | 5000 (≈ 8030 µM) | –
CCOC(=O)CCCCCCC/C=C\CCCCCCC(C)O[C@@H]1O[C@H](COC(C)=O)[C@@H](O)[C@H](O)[C@H]1O[C@@H]1O[C@H](COC(C)=O)[C@@H](O)[C@H](O)[C@H]1O (some centres unmarked) [sophorolipid diacetate ethyl ester] | – | – | – | – | – | – | – | vaginal cell toxicity [14]: induces sufficient vaginal cell toxicity to raise concerns
CC(CCCCCC/C=C\CCCCCCCC(=O)NCCO)OC1OC(CO)C(O)C(O)C1OC1OC(CO)C(O)C(O)C1O (centres unmarked) [SL-AM-1] | – | – | – | – | – | – | – | MIC ([1]; absence of visible growth after 7 days, diluted from 2.5 to 0.0024 mg/ml): 2500 µg/mL (≈ 3750 µM); MIC [2, 15]: 2500 µg/mL (≈ 3750 µM)
